Data taken from patent US8378059B2, “Supramolecular handcuffs in polymeric architecture” (Cambridge Enterprise Ltd., priority 2007, dated 2013).

How the values were obtained:
[1] = Hwang et al. J. Am. Chem. Soc. 2007; cited from earlier work
[2] = aqueous environment; cited from earlier work
[3] = solubility of hydrophobic guest in water, observed by 1H NMR; assay type: physicochemical

cucurbit[7]uril [CB[7]]
Ka, 1:1 complex with ferrocene derivatives [1]: ≈ 10^12 M^−1

Cucurbit[8]uril
association constants (Ka), simultaneous binding of two organic guest molecules [2]: ≈ 10^11 M^−2

CCCCCCCCCCCCCCCCCC[n+]1ccc(-c2cc[n+](C)cc2)cc1 [Viologen 3, Octadecyl methyl viologen]
change in solubility in water ([3]; addition of CB[8] to a solution of Np-PEG5k and 3): increase in solubility | water solubility ([3]; guest alone): only sparingly water-soluble
